#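 GI50 marks 50% less growth. At the TGI there is no net growth.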
# How the values were obtained:
# Test in all cases: NCI tumour cell line growth inhibition, 384-well format
# SF-539 CNS = system: SF-539 CNS
# HCC-2998 colon = system: HCC-2998 colon
# NCI/ADR-RES ovarian = system: NCI/ADR-RES ovarian
# NCI-H322M lung = system: NCI-H322M lung
# SR leukemia = system: SR leukemia
# HL-60(TB) leukemia = system: HL-60(TB) leukemia
# UACC-62 melanoma = system: UACC-62 melanoma
# SK-MEL-28 melanoma = system: SK-MEL-28 melanoma
# IGROV1 ovarian = system: IGROV1 ovarian
# COLO 205 colon = system: COLO 205 colon
# MALME-3M melanoma = system: MALME-3M melanoma
# HOP-62 NSCLC = system: HOP-62 NSCLC
# SNB-19 CNS = system: SNB-19 CNS
# NCI-H460 NSCLC = system: NCI-H460 NSCLC
# M14 melanoma = system: M14 melanoma
# OVCAR-5 ovarian = system: OVCAR-5 ovarian
# HT29 colon = system: HT29 colon
# MDA-MB-435 melanoma = system: MDA-MB-435 melanoma
# RPMI-8226 leukemia = system: RPMI-8226 leukemia
# PC-3 prostate = system: PC-3 prostate
# 786-0 renal = system: 786-0 renal
# MOLT-4 leukemia = system: MOLT-4 leukemia
# NCI-H23 lung = system: NCI-H23 lung
# CAKI-1 renal = system: CAKI-1 renal
# MDA-MB-231 breast = system: MDA-MB-231 breast
# T-47D breast = system: T-47D breast
# SF-268 CNS = system: SF-268 CNS
# CCRF-CEM leukemia = system: CCRF-CEM leukemia
# OVCAR-3 ovarian = system: OVCAR-3 ovarian
# LOX IMVI melanoma = system: LOX IMVI melanoma
# SK-OV-3 ovarian = system: SK-OV-3 ovarian
# U251 glioblastoma = system: U251 glioblastoma
# BT-549 breast = system: BT-549 breast
# UACC-257 melanoma = system: UACC-257 melanoma
# HCT-15 colon = system: HCT-15 colon
# UO-31 renal = system: UO-31 renal
# NCI-H522 lung = system: NCI-H522 lung
# SN12C renal = system: SN12C renal
# HCT-116 colon = system: HCT-116 colon
# EKVX NSCLC = system: EKVX NSCLC
# SW-620 colon = system: SW-620 colon
# OVCAR-8 ovarian = system: OVCAR-8 ovarian
# HS 578T breast = system: HS 578T breast
# MDA-MB-468 breast = system: MDA-MB-468 breast
# SF-295 CNS = system: SF-295 CNS
# A549 NSCLC = system: A549 NSCLC
# NCI-H226 lung = system: NCI-H226 lung
smiles,measurement,setting,value
CCc1c(C#N)c(SC(C(N)=O)c2ccccc2)nc(N2CCC(N)CC2)c1C#N (centres undefined),GI50,SF-539 CNS,6.59 µM
same,TGI,SF-539 CNS,19.3 µM
same,GI50,HCC-2998 colon,8.72 µM
same,TGI,HCC-2998 colon,20.9 µM
same,GI50,NCI/ADR-RES ovarian,66.6 µM
same,TGI,NCI/ADR-RES ovarian,> 100 µM
same,GI50,NCI-H322M lung,15.9 µM
same,TGI,NCI-H322M lung,29.4 µM
same,GI50,SR leukemia,3.45 µM
same,TGI,SR leukemia,11.8 µM
same,GI50,HL-60(TB) leukemia,2.29 µM
same,TGI,HL-60(TB) leukemia,9.95 µM
same,GI50,UACC-62 melanoma,6.36 µM
same,TGI,UACC-62 melanoma,19.7 µM
same,GI50,SK-MEL-28 melanoma,7.46 µM
same,TGI,SK-MEL-28 melanoma,20.1 µM
same,GI50,IGROV1 ovarian,15 µM
same,TGI,IGROV1 ovarian,28.3 µM
same,GI50,COLO 205 colon,3.42 µM
same,TGI,COLO 205 colon,17.4 µM
same,GI50,MALME-3M melanoma,4.17 µM
same,TGI,MALME-3M melanoma,16.9 µM
same,GI50,HOP-62 NSCLC,4.92 µM
same,TGI,HOP-62 NSCLC,16.3 µM
same,GI50,SNB-19 CNS,13.9 µM
same,TGI,SNB-19 CNS,27 µM
same,GI50,NCI-H460 NSCLC,11.2 µM
same,TGI,NCI-H460 NSCLC,23.5 µM
same,GI50,M14 melanoma,10.4 µM
same,TGI,M14 melanoma,22.2 µM
same,GI50,OVCAR-5 ovarian,16.1 µM
same,TGI,OVCAR-5 ovarian,29.6 µM
same,GI50,HT29 colon,16.9 µM
same,TGI,HT29 colon,30.7 µM
same,GI50,MDA-MB-435 melanoma,16.8 µM
same,TGI,MDA-MB-435 melanoma,30.5 µM
same,GI50,RPMI-8226 leukemia,0.201 µM
same,TGI,RPMI-8226 leukemia,1.38 µM
same,GI50,PC-3 prostate,11.2 µM
same,TGI,PC-3 prostate,23.4 µM
same,GI50,786-0 renal,11.7 µM
same,TGI,786-0 renal,24 µM
same,GI50,MOLT-4 leukemia,4.95 µM
same,TGI,MOLT-4 leukemia,15.4 µM
same,GI50,NCI-H23 lung,11.5 µM
same,TGI,NCI-H23 lung,23.7 µM
same,GI50,CAKI-1 renal,13 µM
same,TGI,CAKI-1 renal,25.8 µM
same,GI50,MDA-MB-231 breast,16.2 µM
same,TGI,MDA-MB-231 breast,29.8 µM
same,GI50,T-47D breast,14.8 µM
same,TGI,T-47D breast,28 µM
same,GI50,SF-268 CNS,13.5 µM
same,TGI,SF-268 CNS,26.4 µM
same,GI50,CCRF-CEM leukemia,6.52 µM
same,TGI,CCRF-CEM leukemia,19 µM
same,GI50,OVCAR-3 ovarian,0.44 µM
same,TGI,OVCAR-3 ovarian,6.5 µM
same,GI50,LOX IMVI melanoma,11.4 µM
same,TGI,LOX IMVI melanoma,23.7 µM
same,GI50,SK-OV-3 ovarian,17.9 µM
same,TGI,SK-OV-3 ovarian,31.9 µM
same,GI50,U251 glioblastoma,12.5 µM
same,TGI,U251 glioblastoma,25.1 µM
same,GI50,BT-549 breast,10.3 µM
same,TGI,BT-549 breast,22.1 µM
same,GI50,UACC-257 melanoma,2.22 µM
same,TGI,UACC-257 melanoma,5.18 µM
same,GI50,HCT-15 colon,17.3 µM
same,TGI,HCT-15 colon,31.3 µM
same,GI50,UO-31 renal,18.1 µM
same,TGI,UO-31 renal,33 µM
same,GI50,NCI-H522 lung,8.33 µM
same,TGI,NCI-H522 lung,20.9 µM
same,GI50,SN12C renal,11.5 µM
same,TGI,SN12C renal,23.7 µM
same,GI50,HCT-116 colon,1.84 µM
same,TGI,HCT-116 colon,14.5 µM
same,GI50,EKVX NSCLC,15.4 µM
same,TGI,EKVX NSCLC,28.8 µM
same,GI50,SW-620 colon,14.7 µM
same,TGI,SW-620 colon,28.1 µM
same,GI50,OVCAR-8 ovarian,15.6 µM
same,TGI,OVCAR-8 ovarian,29.1 µM
same,GI50,HS 578T breast,14.4 µM
same,TGI,HS 578T breast,27.6 µM
same,GI50,MDA-MB-468 breast,8.13 µM
same,TGI,MDA-MB-468 breast,20.4 µM
same,GI50,SF-295 CNS,13.2 µM
same,TGI,SF-295 CNS,26 µM
same,GI50,A549 NSCLC,14.4 µM
same,TGI,A549 NSCLC,27.7 µM
same,GI50,NCI-H226 lung,12.4 µM
same,TGI,NCI-H226 lung,25 µM
